Results: US11370822B2, “Self-assembling peptide for activating human mast cells” (The Governors of the University of Alberta, priority 2017, dated 2022)
Read-outs that look alike come from different tables or passages of the source.

Tests used:
[1] = AFM morphology of self-assembling peptide nanofiber matrices; type: physicochemical
Procedure: (§1) (RADA)4 (SEQ ID NO: 1) and (RADA)4-GG-(PAMP-12) (SEQ ID NO:2) stock solutions (1.0% w/v) were prepared by dissolving peptide powder in syringe filtered (0.2 μm) Milli-Q water. Peptide stock solutions were sonicated for 30 min to avoid bulk aggregates and reduce viscosity. (RADA)4 peptide solutions with different proportion of (RADA)4-GG-(PAMP-12) (SEQ ID NO: 2) (0, 2.5, 5, 10, 20, 40, 80, 100% w/w) were mixed with 1x PBS (pH 7.4) at a ratio of 1:1 (v/v) to get hydrogel matrices with peptide concentration of 0.5% w/v. Fifty μl of the mixture was placed at the bottom of a 96-well plate or well insert, overnight at 4° C. and washed with HEPES buffer (10 mM, with 0.4% BSA, pH 7.4) or PBS for 3 times.
The morphology of the hydrogel matrices were measured using Dimension 3100 Nanoman Atomic Force Microscopy (AFM, Veeco Metrology, LLC) with tapping mode, tip radius of 8 nm. Matrix solutions used in AFM studies were prepared by 500 times diluted with Mili-Q water. A drop (5 ul) of each solution was placed on freshly cleaved mica substrate then rise with water. The surfaces were air dried overnight at room temperature before being imaged.

LAD2 cells [2] = assay: β-hexosaminidase (β-hex) release assay, peptide solutions; type: cell-based, human; conditions: 30 min; for LAD2 degranulation (β-hex release): peptide solutions, various concentrations, compared with PBS; for β-hex release (plateau): solution free peptide, 10 μM
Procedure: LAD2 (Laboratory of Allergic Diseases 2) human mast cells were incubated in StemPro-34 SFM medium (Life Technologies, Rockville, Md.) supplemented with 2 mM L-glutamine, 100 I/ml penicillin, 50 μg/ml streptomycin, 100 ng/ml recombinant human SCF (Peprotech, Rocky Hill, N.J.). Cells were maintained at 0.1×10^6 cells/ml at 37° C. and 5% CO2. Cell suspensions were isolated via centrifugation (200 g, 5 min, at room temperature) and media was replaced every 3-7 days. For each well, 0.25×10^5 LAD2 cells were washed and resuspended in 90 μl HEPES buffer (10 mM, with 0.4% BSA, pH 7.4), and activated by adding 10 μl peptide solutions (PAMP-12 […], (RADA)4 (SEQ ID NO: 1) and (RADA)4-GG-(PAMP-12) (SEQ ID NO: 2)) in PBS (1×, pH 7.4) for 30 min at 37° C., the final concentrations of peptide are 0, 0.01, 0.1, 1, 10, 20, 50, 100 μM respectively. β-hex release was quantified through analysis of the hydrolysis of p-nitrophenyl N-acetyl-b-D-glucosamide (Sigma Aldrich, Oakville, ON, Canada) in 0.1 M sodium citrate buffer (pH 4.5) for both the supernatant and in total cell lysates solubilized with 0.01% Triton X-100 for 90 min at 37° C. The reaction was stopped by adding glycine buffer (pH 10.7). Read absorbance at 405 nm with reference filter at 620 nm. The percent-age of β-hex released into the supernatant was calculated by the β-hex contents of supernatant and cell lysate.

LAD2 cells [3] = assay: β-hex release assay, LAD2 cells on top of hydrogel matrices; type: cell-based, human; conditions: for degranulation activity (β-hex release): 30 min
Procedure: as §1
LAD2 (Laboratory of Allergic Diseases 2) human mast cells were incubated in StemPro-34 SFM medium (Life Technologies, Rockville, Md.) supplemented with 2 mM L-glutamine, 100 I/ml penicillin, 50 μg/ml streptomycin, 100 ng/ml recombinant human SCF (Peprotech, Rocky Hill, N.J.). Cells were maintained at 0.1×10^6 cells/ml at 37° C. and 5% CO2. Cell suspensions were isolated via centrifugation (200 g, 5 min, at room temperature) and media was replaced every 3-7 days.
To evaluate the effect of the matrices on degranulation, 0.25×10^5 LAD2 cells in 50 μl HEPES buffer (10 mM, with 0.4% BSA, pH 7.4) were carefully placed on the top of 50 μl hydrogel matrices, and the β-hex release was measured as described. After 30 min incubation, cell free supernatant and total cells with the matrices were collected by centrifugation (300 g, 5 min) for analysis.

LAD2 cells [4] = assay: β-hex release assay, co-culture with well insert (0.2 μm pore size filter); type: cell-based, human; conditions: 30 min
Procedure: To evaluate the immobilization effect of (RADA)4-GG-(PAMP-12) (SEQ ID NO: 2) in the matrices. As shown in FIG. 6 (A), 0.25×10^5 LAD2 cells in 100 μl HEPES buffer (10 mM, with 0.4% BSA, pH 7.4) were co-incubated with well inserts that contain 50 μl of self-assembling matrix (20% and 100% w/w of (RADA)4-GG-(PAMP-12) (SEQ ID NO: 2)) or PAMP-12 (SEQ ID NO: 3) solution in HEPES buffer (10 mM, with 0.4% BSA, pH 7.4) with the corresponding concentration (0.29 and 1.46 mM respectively). After 30 min incubation, inserts were removed, and the β-hex release was measured as described.

LAD2 cells [5] = assay: Laser-scanning confocal microscopy of LAD2 cells on hydrogel matrices (adhesion, F-actin); type: cell-based, human; conditions: 0.5% w/v matrix (pure (RADA)4 or 20% w/w (RADA)4-GG-(PAMP-12))
Procedure: For each sample, 0.25×10^5 LAD2 cells in 50 μl culture medium were allowed to incubate with 50 μl hydrogel matrix for 30 min at 37° C. After incubation, the medium was disposed, and hydrogel matrix was carefully washed by warm PBS for 3 times to remove non-adherent cells. Hydrogel matrices were then fixed in 3.7% paraformaldehyde in PBS for 20 min at room temperature and 3 times washed in PBS. Cells were permeabilized with 0.1% Triton X-100 in PBS for 5 min, washed in PBS for 3 times, then followed by 3% BSA blocking for 30 min and 3 times washing in PBS. To stain F-actin, samples were incubated with 0.5 μM Phalloidin-FITC (Sigma-Aldrich, USA) for 30 minutes and followed by 3 times washing in PBS. Cell nuclei were stained with 1 ug/mL DAPI (Sigma-Aldrich, USA) in PBS for 30 min. After 3 times washing in PBS, Z-slice images of the matrix with adhered LAD2 cells were collected using Laser Scanning Confocal Microscopy (LSM710, Carl Zeizz AG, Oberkochen, Germany) with an inverted 10× objective.

TPSAB1 (tryptase) mRNA = assay: In vitro activation of mast cells in human skin, ddPCR for TPSAB1 expression; conditions: human skin without epidermis (NSE), 4 h; 10 μM PAMP-12, pure (RADA)4 matrix or matrix with 20% w/w (RADA)4-GG-(PAMP-12); NS average taken as 100
From the text: Human skin was harvested from abdominoplasty surgical discard specimens obtained following written informed consent as approved by the University of Alberta research ethics board. All tissue was from healthy non-smokers in their 30s. Human skin was separated from the underlying adipose tissue using a 15 blade scalpel. The epidermis was then removed using a […] dermatome (Integra LifeSciences Corporation, Cincinnati, Ohio) set to 0.25 mm thickness. The deepithelialized dermis was then divided into multiple pieces 1 cm^2 using sharp surgical scissors. Control or active hydrogel matrix (100 μl) was then layered onto the exposed surface of the dermis. […] For some groups, PBS and PAMP-12 PBS solution were used as negative and positive control. Following this, tissue pieces were removed and snap frozen in liquid nitrogen and stored at -80° C. until further processing. […] To obtain the absolute quantity of TPSAB1 transcripts, ddPCR (QX100, Bio-Rad, Hercules, Calif.) was employed using 5 ng of each cDNA sample and ddPCR supermix for the specific probes (Bio-Rad) according to manufacturer's protocols. […] QuantaSoft Software (Bio-Rad) was employed to analyze ddPCR results, and the absolute concentration of TPSAB1 transcripts in each sample determined by ddPCR was divided by the ACTB transcripts and presented as percentage based on normal skin samples (NS average taken as 100).

LAD2 cells [6] = assay: Cell viability analysis using XTT assay; conditions: for cytotoxicity to LAD2 cells (XTT): PAMP-12 10 μM, 0.5% w/v hydrogel matrices (pure (RADA)4 or 20% w/w (RADA)4-GG-(PAMP-12)), 4 h or 24 h; for effect on LAD2 proliferation (XTT): same treatments, after 24 h incubation
Procedure: (§2) LAD2 cells were suspended in culture medium (50 μl, 1.0×10^6 cells/ml) and placed on top of 50 μl of hydrogel matrix or culture medium solution. After an 4 h or 24 h incubation, cell viability was measured using a 2,3-bis-(2-methoxy-4-nitro-5-sulfophenyl)-2H-tetrazolium-5-carboxanilide (XTT) proliferation kit (Roche Molecular Biochemicals, Indianapolis, Ind., USA), according to the manufacturer's supplied instructions. To facilitate a uniform distribution of color throughout the hydrogel matrix, 50 μl of DMSO was added into each well prior to analysis.

LAD2 cells [7] = tested on: LAD2 cells
Procedure: as §2

[8] = pure (RADA)4-GG-(PAMP-12), 0.5% w/v

SMILES	nanofiber length (most of the nanofibers) ([1]; 20% and 40% w/w (RADA)4-GG-(PAMP-12) in (RADA)4, 0.5% w/v)	nanofiber length (most of the nanofibers) [1, 8]	nanoparticle size [1, 8]	nanostructure morphology ([1]; pure peptide, 0.5% w/v)	nanofiber height (AFM cross section) ([1]; pure peptide, 0.5% w/v matrix)	LAD2 degranulation (β-hex release) (LAD2 cells [2])	β-hex release (plateau) (LAD2 cells [2])	degranulation activity (β-hex release) (LAD2 cells [3]; 0.5% w/v hydrogel matrix with 20% w/w (RADA)4-GG-(PAMP-12))	degranulation activity (β-hex release) (LAD2 cells [3]; 0.5% w/v hydrogel matrix with 40% w/w (RADA)4-GG-(PAMP-12))	degranulation activity versus proportion in matrix (LAD2 cells [3]; (RADA)4-GG-(PAMP-12) from 2.5 to 20% w/w in matrix)	degranulation of LAD2 (β-hex release) (LAD2 cells [4]; 0.5% w/v matrix with 20% w/w (RADA)4-GG-(PAMP-12) in insert)	degranulation of LAD2 (β-hex release) (LAD2 cells [4]; matrix of 100% w/w (RADA)4-GG-(PAMP-12) in insert)	F-actin organization / cell morphology of LAD2 cells (LAD2 cells [5]; 2D imaging)	LAD2 cells associated with matrix post-wash (LAD2 cells [5]; 30 min incubation)	TPSAB1 expression level, normalized to ACTB (TPSAB1 (tryptase) mRNA)	cytotoxicity to LAD2 cells (XTT) (LAD2 cells [6])	effect on LAD2 proliferation (XTT) (LAD2 cells [6])	degranulation of LAD2 (β-hex release) (LAD2 cells [4]; 0.29 mM PAMP-12 solution in insert)	degranulation of LAD2 (β-hex release) (LAD2 cells [4]; 1.46 mM PAMP-12 solution in insert)	effect on LAD2 proliferation (XTT) (LAD2 cells [7])
CC(=O)N[C@@H](CCCNC(=N)N)C(=O)N[C@@H](C)C(=O)N[C@@H](CC(=O)O)C(=O)N[C@@H](C)C(=O)N[C@@H](CCCNC(=N)N)C(=O)N[C@@H](C)C(=O)N[C@@H](CC(=O)O)C(=O)N[C@@H](C)C(=O)N[C@@H](CCCNC(=N)N)C(=O)N[C@@H](C)C(=O)N[C@@H](CC(=O)O)C(=O)N[C@@H](C)C(=O)N[C@@H](CCCNC(=N)N)C(=O)N[C@@H](C)C(=O)N[C@@H](CC(=O)O)C(=O)N[C@@H](C)C(=O)NCC(=O)NCC(=O)N[C@@H](Cc1ccccc1)C(=O)N[C@@H](CCCNC(=N)N)C(=O)N[C@@H](CCCCN)C(=O)N[C@@H](CCCCN)C(=O)N[C@@H](Cc1c[nH]c2ccccc12)C(=O)N[C@@H](CC(N)=O)C(=O)N[C@@H](CCCCN)C(=O)N[C@@H](Cc1c[nH]c2ccccc12)C(=O)N[C@@H](C)C(=O)N[C@@H](CC(C)C)C(=O)N[C@@H](CO)C(=O)N[C@@H](CCCNC(=N)N)C(N)=O [(RADA)4-GG-(PAMP-12)]	> 500 nm	less than 500 nm	less than 200 nm	thick and short nanofibers and even small nanoparticles	2.5-3.5 nm	induced significant degranulation	~75%	64.2±3.4%	70.2±7.1%	increased proportionally	11.1±1.1%	59.6±3.1%	lamellipodia and filopodia were observed	considerable amount of cells retained after washing	191.1±12.0 percentage	not cytotoxic	no statistically significant effect			
CC(=O)N[C@@H](CCCNC(=N)N)C(=O)N[C@@H](C)C(=O)N[C@@H](CC(=O)O)C(=O)N[C@@H](C)C(=O)N[C@@H](CCCNC(=N)N)C(=O)N[C@@H](C)C(=O)N[C@@H](CC(=O)O)C(=O)N[C@@H](C)C(=O)N[C@@H](CCCNC(=N)N)C(=O)N[C@@H](C)C(=O)N[C@@H](CC(=O)O)C(=O)N[C@@H](C)C(=O)N[C@@H](CCCNC(=N)N)C(=O)N[C@@H](C)C(=O)N[C@@H](CC(=O)O)C(=O)N[C@@H](C)C(N)=O [(RADA)4, RADARADARADARADA, reference compound]																not cytotoxic	no statistically significant effect			
CC(=O)N[C@@H](Cc1ccccc1)C(=O)N[C@@H](CCCNC(=N)N)C(=O)N[C@@H](CCCCN)C(=O)N[C@@H](CCCCN)C(=O)N[C@@H](Cc1c[nH]c2ccccc12)C(=O)N[C@@H](CC(N)=O)C(=O)N[C@@H](CCCCN)C(=O)N[C@@H](Cc1c[nH]c2ccccc12)C(=O)N[C@@H](C)C(=O)N[C@@H](CC(C)C)C(=O)N[C@@H](CO)C(=O)N[C@@H](CCCNC(=N)N)C(N)=O [PAMP-12, Ac-FRKKWNKWALSR-CONH2, reference compound]						induced significant degranulation	~75%								224.2±9.920 percentage			65.4±2.6%	69.5±1.2%	no statistically significant effect
